Here are results for 1 compound from patent US20120270237A9, “METHODS FOR THE IDENTIFICATION OF KINASE INTERACTING MOLECULES AND FOR THE PURIFICATION OF KINASE PROTEINS” (Cellzone AG, priority 2009, published 2012).

The target of one assay is T1, TEC (Homo sapiens, UniProt P42680).
T1 sequence (P42680 1-631): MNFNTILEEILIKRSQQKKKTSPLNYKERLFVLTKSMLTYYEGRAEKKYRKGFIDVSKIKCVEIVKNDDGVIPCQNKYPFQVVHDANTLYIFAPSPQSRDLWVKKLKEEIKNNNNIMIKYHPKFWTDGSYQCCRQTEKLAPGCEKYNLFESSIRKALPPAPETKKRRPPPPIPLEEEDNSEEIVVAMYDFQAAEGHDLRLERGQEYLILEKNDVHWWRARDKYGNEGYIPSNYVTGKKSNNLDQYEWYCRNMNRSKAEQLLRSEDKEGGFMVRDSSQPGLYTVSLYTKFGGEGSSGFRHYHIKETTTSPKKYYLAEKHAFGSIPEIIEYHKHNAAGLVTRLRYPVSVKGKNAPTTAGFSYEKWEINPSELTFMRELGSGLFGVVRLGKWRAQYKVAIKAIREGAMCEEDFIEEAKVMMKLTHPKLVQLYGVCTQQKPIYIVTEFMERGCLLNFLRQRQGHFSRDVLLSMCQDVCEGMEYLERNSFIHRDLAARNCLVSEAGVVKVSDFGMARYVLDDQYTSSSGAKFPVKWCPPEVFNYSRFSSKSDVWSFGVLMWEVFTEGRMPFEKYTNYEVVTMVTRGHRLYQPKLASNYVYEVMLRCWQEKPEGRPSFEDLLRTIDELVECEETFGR
The experiment in a line: Kinobeads competition binding, HeLa Placenta lysate mix. Set-up: kinases from mixed HeLa placenta lysates; endogenous in cells; host or cells: mixed lysate of HeLa cells and placenta tissue. The following applies: 10 μM free compound. How it is done:
(§1) To one aliquot of cell lysate 10 μM of the free compound (FIG. 3, CZC31326) was added and allowed to bind to proteins in the lysate. Then the affinity matrix with the immobilized compound was added to capture proteins that were not interacting with the previously added free compound. Beads were separated from the lysate and bead bound proteins were eluted in SDS sample buffer and subsequently separated by SDS-Polyacrylamide gel electrophoresis (FIG. 10). Suitable gel bands were cut out and subjected to in-gel proteolytic digestion with trypsin. The second lysate aliquot was processed identically, however no free compound was added (DMSO solvent control). Peptides originating from samples 1 and 2 were labeled with iTRAQ reagents (iTRAQ 114 and iTRAQ 117) and the combined samples were analyzed with a nano-flow liquid chromatography system coupled online to a tandem mass spectrometer (LC-MS/MS) experiment followed by iTRAQ reporter ion quantification in the MS/MS spectra as described in Example 2.

For the next assay, the target named is T2, INSR (Homo sapiens, UniProt P06213).
T2 construct: capturing and identification of kinases from L-363 cell lysate; endogenous in cells; host or cells: L-363 (DSMZ ACC49), treated with MG132 before harvest
Kind of assay: Kinobeads competition binding, L-363 cell lysate. The following applies: 10 μM free compound, L-363 lysate. How it is done:
as §1, with “8).” for “10).”
(§2) For this experiment the human plasma cell leukaemia line L-363 was used (German Collection of Microorganisms and Cell Cultures, DSMZ number ACC49, Braunschweig, Germany). Cells were treated for three hours with 20 μM of the proteasome inhibitor MG132 (Z-Leu-Leu-Leu-al, Sigma C2211) prior to cell harvesting.

Another assay deals with T3, HRI (Homo sapiens, UniProt Q9BQI3).
T3 construct: capturing and identification of kinases from L-363 cell lysate; endogenous in cells; host or cells: L-363 (DSMZ ACC49), treated with MG132 before harvest
T3 sequence (Q9BQI3 whole entry): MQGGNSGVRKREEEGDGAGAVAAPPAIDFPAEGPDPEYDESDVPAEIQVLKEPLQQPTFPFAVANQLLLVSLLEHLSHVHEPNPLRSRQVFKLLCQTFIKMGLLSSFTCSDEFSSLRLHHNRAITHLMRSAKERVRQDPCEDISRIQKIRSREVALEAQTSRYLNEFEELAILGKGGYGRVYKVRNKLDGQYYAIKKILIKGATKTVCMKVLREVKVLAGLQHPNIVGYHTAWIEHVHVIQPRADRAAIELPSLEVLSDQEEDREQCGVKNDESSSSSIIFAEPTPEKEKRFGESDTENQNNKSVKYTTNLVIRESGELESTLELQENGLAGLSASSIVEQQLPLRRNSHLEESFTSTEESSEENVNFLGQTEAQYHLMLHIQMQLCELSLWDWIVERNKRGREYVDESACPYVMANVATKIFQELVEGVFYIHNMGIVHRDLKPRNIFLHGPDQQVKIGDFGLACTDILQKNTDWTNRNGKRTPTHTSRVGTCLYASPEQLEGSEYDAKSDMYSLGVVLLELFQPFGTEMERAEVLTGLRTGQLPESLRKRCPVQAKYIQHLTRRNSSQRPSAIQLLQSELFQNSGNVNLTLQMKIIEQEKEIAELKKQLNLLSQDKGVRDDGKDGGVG
The experiment in a line: Kinobeads competition binding, L-363 cell lysate. The note with it: 10 μM free compound, L-363 lysate. How it is done:
as §1, with “8).” for “10).”
as §2

A further assay deals with T4, NEK7 (Homo sapiens, UniProt Q8TDX7).
T4 construct: capturing and identification of kinases from L-363 cell lysate; endogenous in cells; host or cells: L-363 (DSMZ ACC49), treated with MG132 before harvest
T4 sequence (Q8TDX7 whole entry): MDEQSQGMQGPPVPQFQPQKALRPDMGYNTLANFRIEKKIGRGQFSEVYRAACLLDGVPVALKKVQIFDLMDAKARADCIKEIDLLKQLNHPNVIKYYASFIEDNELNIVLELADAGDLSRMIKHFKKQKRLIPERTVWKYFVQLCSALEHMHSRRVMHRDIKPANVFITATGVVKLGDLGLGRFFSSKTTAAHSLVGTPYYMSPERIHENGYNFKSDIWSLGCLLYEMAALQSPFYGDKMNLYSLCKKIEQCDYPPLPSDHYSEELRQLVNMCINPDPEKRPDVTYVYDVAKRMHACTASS
The experiment in a line: Kinobeads competition binding, L-363 cell lysate. The note with it: 10 μM free compound, L-363 lysate. The method, then:
as §1, with “8).” for “10).”
as §2

The next assay concerns the target T5, NIK (Homo sapiens, UniProt Q99558).
T5 construct: capturing and identification of kinases from L-363 cell lysate; endogenous in cells; host or cells: L-363 (DSMZ ACC49), treated 3 h with 20 uM MG132 before harvest
The experiment in a line: Kinobeads competition binding, L-363 cell lysate. The note with it: 10 μM free compound, L-363 lysate. How it is done: as §1, with “8).” for “10).”
as §2

The target in another assay is SLK (Homo sapiens, UniProt Q9H2G2). Kind of assay: Kinobeads competition binding, L-363 cell lysate. The note with it: 10 μM free compound, L-363 lysate. How it is done: as §1, with “8).” for “10).”
SLK, sequence (Q9H2G2 whole entry): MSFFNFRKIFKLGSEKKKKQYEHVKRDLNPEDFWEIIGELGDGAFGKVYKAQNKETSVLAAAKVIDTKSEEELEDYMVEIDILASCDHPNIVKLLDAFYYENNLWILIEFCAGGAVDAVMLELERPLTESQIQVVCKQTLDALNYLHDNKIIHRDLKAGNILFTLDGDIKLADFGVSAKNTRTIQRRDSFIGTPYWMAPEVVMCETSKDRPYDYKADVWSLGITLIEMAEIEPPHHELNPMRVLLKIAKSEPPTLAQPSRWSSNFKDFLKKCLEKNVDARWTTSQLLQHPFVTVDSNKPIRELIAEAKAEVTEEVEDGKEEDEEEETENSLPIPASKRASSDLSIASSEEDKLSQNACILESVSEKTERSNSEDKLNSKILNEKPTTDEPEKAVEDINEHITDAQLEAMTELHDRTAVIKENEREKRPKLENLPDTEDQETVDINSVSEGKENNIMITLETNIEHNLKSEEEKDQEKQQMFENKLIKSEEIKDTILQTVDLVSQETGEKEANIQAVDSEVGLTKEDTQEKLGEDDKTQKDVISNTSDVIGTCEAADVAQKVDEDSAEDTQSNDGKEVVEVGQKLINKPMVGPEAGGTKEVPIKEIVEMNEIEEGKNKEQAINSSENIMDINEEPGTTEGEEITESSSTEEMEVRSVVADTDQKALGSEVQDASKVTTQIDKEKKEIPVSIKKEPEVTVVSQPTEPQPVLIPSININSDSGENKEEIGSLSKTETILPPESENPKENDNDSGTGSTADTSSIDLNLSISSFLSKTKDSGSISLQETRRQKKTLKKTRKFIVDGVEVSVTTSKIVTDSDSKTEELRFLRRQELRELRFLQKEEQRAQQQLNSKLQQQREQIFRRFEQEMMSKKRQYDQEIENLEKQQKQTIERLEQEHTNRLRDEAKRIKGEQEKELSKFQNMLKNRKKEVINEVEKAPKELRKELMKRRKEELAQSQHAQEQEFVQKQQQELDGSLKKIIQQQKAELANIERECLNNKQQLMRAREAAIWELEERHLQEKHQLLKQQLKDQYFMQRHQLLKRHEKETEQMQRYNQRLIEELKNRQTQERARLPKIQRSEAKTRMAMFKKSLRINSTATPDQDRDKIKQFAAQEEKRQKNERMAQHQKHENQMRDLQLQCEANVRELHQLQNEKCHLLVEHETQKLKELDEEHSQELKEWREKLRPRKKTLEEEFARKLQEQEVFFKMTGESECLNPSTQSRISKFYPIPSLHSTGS
as §2

The target in the next assay is T6, NEK6 (Homo sapiens, UniProt Q9HC98).
T6 construct: capturing and identification of kinases from L-363 cell lysate; endogenous in cells; host or cells: L-363 (DSMZ ACC49), treated with MG132 before harvest
T6 sequence (Q9HC98 whole entry): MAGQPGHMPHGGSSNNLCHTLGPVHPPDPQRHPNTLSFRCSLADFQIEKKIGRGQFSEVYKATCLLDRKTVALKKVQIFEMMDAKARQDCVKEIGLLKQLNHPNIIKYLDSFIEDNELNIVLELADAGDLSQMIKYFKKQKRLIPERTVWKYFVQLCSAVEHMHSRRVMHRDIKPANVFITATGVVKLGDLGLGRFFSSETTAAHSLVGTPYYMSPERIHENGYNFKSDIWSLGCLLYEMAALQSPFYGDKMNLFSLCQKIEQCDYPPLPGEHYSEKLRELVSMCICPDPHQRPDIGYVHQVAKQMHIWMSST
Kind of assay: Kinobeads competition binding, L-363 cell lysate. The note with it: 10 μM free compound, L-363 lysate. The method, then: as §1, with “8).” for “10).”
as §2

The next assay deals with T7, DRAK2 (Homo sapiens, UniProt O94768).
T7 construct: capturing and identification of kinases from L-363 cell lysate; endogenous in cells; host or cells: L-363 (DSMZ ACC49), treated with MG132 before harvest
T7 sequence (O94768 whole entry): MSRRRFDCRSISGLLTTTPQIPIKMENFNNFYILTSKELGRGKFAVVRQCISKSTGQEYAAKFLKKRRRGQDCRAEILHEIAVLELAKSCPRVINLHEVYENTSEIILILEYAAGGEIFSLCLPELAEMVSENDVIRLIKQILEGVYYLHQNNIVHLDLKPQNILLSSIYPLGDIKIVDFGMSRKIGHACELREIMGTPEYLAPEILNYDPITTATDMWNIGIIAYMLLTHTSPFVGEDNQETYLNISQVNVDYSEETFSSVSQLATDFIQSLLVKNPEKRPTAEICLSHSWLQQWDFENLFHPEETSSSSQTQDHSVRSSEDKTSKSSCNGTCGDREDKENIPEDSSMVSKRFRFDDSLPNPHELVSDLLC
Kind of assay: Kinobeads competition binding, L-363 cell lysate. The note with it: 10 μM free compound, L-363 lysate. The method, then: as §1, with “8).” for “10).”
as §2

The next assay concerns the target T8, DYRK1A (Homo sapiens, UniProt Q13627).
T8 construct: capturing and identification of kinases from L-363 cell lysate; endogenous in cells; host or cells: L-363 (DSMZ ACC49), treated with MG132 before harvest
Kind of assay: Kinobeads competition binding, L-363 cell lysate. The note with it: 10 μM free compound, L-363 lysate. The method, then: as §1, with “8).” for “10).”
as §2

For a further assay, the target named is T9, PIK4Ca (Homo sapiens, UniProt P42356).
T9 construct: capturing and identification of kinases from L-363 cell lysate; endogenous in cells; host or cells: L-363 (DSMZ ACC49), treated with MG132 before harvest
Kind of assay: Kinobeads competition binding, L-363 cell lysate. The note with it: 10 μM free compound, L-363 lysate. The method, then:
as §1, with “8).” for “10).”
as §2

In a further assay the target is T10, NEK1 (Homo sapiens, UniProt Q96PY6).
T10 construct: capturing and identification of kinases from L-363 cell lysate; endogenous in cells; host or cells: L-363 (DSMZ ACC49), treated with MG132 before harvest
The experiment in a line: Kinobeads competition binding, L-363 cell lysate. The note with it: 10 μM free compound, L-363 lysate. The method, then:
as §1, with “8).” for “10).”
as §2

The target of another assay is T11, RSK4 (Homo sapiens, UniProt Q9UK32).
T11 construct: endogenous in cells; host or cells: L-363 (DSMZ ACC49), treated with MG132 before harvest
T11 sequence (Q9UK32 whole entry): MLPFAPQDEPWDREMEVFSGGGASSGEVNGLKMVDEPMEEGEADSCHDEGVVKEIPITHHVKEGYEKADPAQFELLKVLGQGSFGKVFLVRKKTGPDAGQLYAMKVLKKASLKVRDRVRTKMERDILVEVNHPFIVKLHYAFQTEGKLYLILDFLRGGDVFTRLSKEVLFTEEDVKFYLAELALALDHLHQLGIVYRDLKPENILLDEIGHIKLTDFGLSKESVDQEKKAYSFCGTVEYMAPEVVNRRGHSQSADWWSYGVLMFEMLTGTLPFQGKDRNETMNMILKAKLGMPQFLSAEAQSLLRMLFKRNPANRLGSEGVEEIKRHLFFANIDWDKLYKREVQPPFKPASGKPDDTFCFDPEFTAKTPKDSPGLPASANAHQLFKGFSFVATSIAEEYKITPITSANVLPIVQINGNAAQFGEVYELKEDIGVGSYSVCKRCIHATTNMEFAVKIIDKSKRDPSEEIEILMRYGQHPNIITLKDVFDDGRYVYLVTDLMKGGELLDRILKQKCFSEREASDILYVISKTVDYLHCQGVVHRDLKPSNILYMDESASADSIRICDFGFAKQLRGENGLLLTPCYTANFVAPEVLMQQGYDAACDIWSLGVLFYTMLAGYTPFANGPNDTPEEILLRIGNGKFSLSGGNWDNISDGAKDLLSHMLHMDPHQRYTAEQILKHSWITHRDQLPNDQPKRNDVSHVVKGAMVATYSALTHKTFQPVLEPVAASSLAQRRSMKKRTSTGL
Kind of assay: Kinobeads competition binding, L-363 cell lysate. The following applies: 10 μM free compound, L-363 lysate. How it is done:
as §1, with “8).” for “10).”
as §2

The next assay concerns the target T12, ULK1 (Homo sapiens, UniProt O75385).
T12 construct: endogenous in cells; host or cells: L-363 (DSMZ ACC49), treated with MG132 before harvest
Kind of assay: Kinobeads competition binding, L-363 cell lysate. The note with it: 10 μM free compound, L-363 lysate. How it is done:
as §1, with “8).” for “10).”
as §2

The target of a further assay is T13, JAK3 (Homo sapiens, UniProt P52333).
T13 construct: capturing and identification of kinases from L-363 cell lysate; endogenous in cells; host or cells: L-363 (DSMZ ACC49), treated with MG132 before harvest
T13 sequence (P52333 whole entry): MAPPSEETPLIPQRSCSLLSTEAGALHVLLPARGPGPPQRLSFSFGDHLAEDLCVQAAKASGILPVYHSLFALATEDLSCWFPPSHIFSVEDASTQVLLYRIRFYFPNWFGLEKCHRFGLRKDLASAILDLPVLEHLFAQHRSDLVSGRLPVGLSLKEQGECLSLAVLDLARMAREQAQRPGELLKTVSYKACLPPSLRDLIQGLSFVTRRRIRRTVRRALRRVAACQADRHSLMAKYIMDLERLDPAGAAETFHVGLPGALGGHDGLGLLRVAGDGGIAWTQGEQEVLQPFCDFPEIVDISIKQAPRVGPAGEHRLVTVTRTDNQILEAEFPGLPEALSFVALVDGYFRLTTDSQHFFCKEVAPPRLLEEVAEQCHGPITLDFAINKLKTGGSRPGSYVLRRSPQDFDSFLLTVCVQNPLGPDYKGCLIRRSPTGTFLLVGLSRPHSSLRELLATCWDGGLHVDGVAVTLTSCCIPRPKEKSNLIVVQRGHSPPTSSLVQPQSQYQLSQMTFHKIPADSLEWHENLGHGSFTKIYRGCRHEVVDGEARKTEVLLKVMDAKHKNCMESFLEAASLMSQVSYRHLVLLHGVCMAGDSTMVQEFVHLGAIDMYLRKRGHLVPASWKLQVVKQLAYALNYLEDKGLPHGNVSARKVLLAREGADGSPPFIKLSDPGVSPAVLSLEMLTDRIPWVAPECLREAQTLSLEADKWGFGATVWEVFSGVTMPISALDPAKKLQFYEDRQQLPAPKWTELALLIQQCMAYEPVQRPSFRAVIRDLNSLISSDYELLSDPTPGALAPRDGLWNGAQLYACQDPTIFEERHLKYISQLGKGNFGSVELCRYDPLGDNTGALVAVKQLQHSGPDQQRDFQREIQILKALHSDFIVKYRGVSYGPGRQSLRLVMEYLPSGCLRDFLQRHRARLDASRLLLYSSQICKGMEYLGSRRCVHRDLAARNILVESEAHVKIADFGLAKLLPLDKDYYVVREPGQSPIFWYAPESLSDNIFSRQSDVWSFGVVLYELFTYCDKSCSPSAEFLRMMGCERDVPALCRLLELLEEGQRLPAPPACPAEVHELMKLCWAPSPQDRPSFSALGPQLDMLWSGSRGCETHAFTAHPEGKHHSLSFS
Kind of assay: Kinobeads competition binding, L-363 cell lysate. The following applies: 10 μM free compound, L-363 lysate. How it is done: as §1, with “8).” for “10).”
as §2

Another assay deals with T14, NuaK2 (Homo sapiens, UniProt Q9H093).
T14 construct: capturing and identification of kinases from L-363 cell lysate; endogenous in cells; host or cells: L-363 (DSMZ ACC49), treated with MG132 before harvest
The experiment in a line: Kinobeads competition binding, L-363 cell lysate. The following applies: 10 μM free compound, L-363 lysate. How it is done:
as §1, with “8).” for “10).”
as §2

On to `CS(=O)(=O)Nc1ccccc1Nc1nc(Nc2cccc(OCCN)c2)ncc1Cl` [CZC31326, N-(2-(2-(3-(2-aminoethoxy)phenylamino)-5-chloropyrimidin-4-ylamino)phenyl)methanesulfonamide], for which the inhibition at 10 µM on TEC was 89.2%; at INSR it was 90.1%; on HRI, 95.8%; on NEK7, 93.9%; on NIK, 98%; at SLK, 95%. Besides, the inhibition at 10 µM on NEK6 is 83.7%; at DRAK2 it was 93.3%; at DYRK1A, 96.5%; at PIK4Ca, 86%; on NEK1, 95.7%; at JAK3, 98.1%. Further, the Competition % on RSK4 is 96.7%; on ULK1, 96.5%; at NuaK2, 96.7%.

In general, inhibition refers to the change of the read-out against control, counted positive when it falls. Low values mean a response near the control, high ones a response far below the control.
